Test results from publication PMC7354438 (Viruses, 2020).
Where a name gives a salt, the structure may show the parent alone.

These compounds were tested on hCoV-19/Norway/Trondheim-E9/2020 (assay: Drug test: viability of SARS-CoV-2-infected Vero-E6 cells (CellTiter-Glo)). Settings: not given.
Format: cell-based
Set-up: AUC: unit not given beside the values
With `CN1CCC[C@H]1c1cccnc1` [nicotine] the AUC was 239 and the “rescue of cells from virus-mediated death” value was “rescued cells from virus-mediated death but altered the cell morphology”.

Same assay, conditions: 72 h
With `Cn1c(=O)c2c(ncn2CC(O)CO)n(C)c1=O` (stereo not drawn) [7-(2,3-Dihydroxypropyl)theophylline] the AUC was 195,44. With `Cc1ccc(C(=O)Nc2ccc(S(=O)(=O)O)c3cc(S(=O)(=O)O)cc(S(=O)(=O)O)c23)cc1NC(=O)c1cccc(NC(=O)Nc2cccc(C(=O)Nc3cc(C(=O)Nc4ccc(S(=O)(=O)O)c5cc(S(=O)(=O)O)cc(S(=O)(=O)O)c45)ccc3C)c2)c1` [Suramin] the AUC was 94,57. For Ivermectin, the AUC was 66,08. For `CC1(C)[C@@H](O[C@H]2O[C@H](C(=O)O)[C@@H](O)[C@H](O)[C@H]2O[C@@H]2O[C@H](C(=O)O)[C@@H](O)[C@H](O)[C@H]2O)CC[C@]2(C)[C@H]3C(=O)C=C4[C@@H]5C[C@@](C)(C(=O)O)CC[C@]5(C)CC[C@@]4(C)[C@]3(C)CC[C@@H]12` [Glycyrrhizic acid (Glycyrrhizin), Glycyrrhizic acid], the AUC was 235,76. For `CO[C@@]1(NC(=O)C(C(=O)[O-])c2ccc(O)cc2)C(=O)N2C(C(=O)[O-])=C(CSc3nnnn3C)CO[C@@H]21.[Na+].[Na+]` (stereo partly drawn) [Moxalactam sodium salt], the AUC was 18,13. For `CC(C)C[C@H]1C(=O)N2CCC[C@H]2[C@]2(O)O[C@](NC(=O)[C@@H]3C=C4c5cccc6[nH]c(Br)c(c56)C[C@H]4N(C)C3)(C(C)C)C(=O)N12` [Bromocriptine], the AUC was 164,57. Chicoric acid was tested, and the AUC was 93,1. In the case of `COc1ccc2cc3[n+](cc2c1OC)CCc1cc2c(cc1-3)OCO2` [Berberine], the AUC is reported as 236,67. With `COc1ccc(CC(C)NCC(O)c2ccc(O)c(NC=O)c2)cc1` (stereo not drawn) [Formoterol] the AUC was 203,77. For `CS(=O)(=O)O.Cc1ccc2c(c1)c1c3n2CCNC3CCC1` (stereo not drawn) [Pirlindole mesylate], the AUC was 120,4. In the case of `CN[C@H]1C(=O)N[C@@H]2Cc3ccc(cc3)Oc3cc4cc(c3O[C@@H]3O[C@H](C(=O)O)[C@@H](O)[C@H](O)[C@H]3NC(=O)CCCCCCCCC(C)C)Oc3ccc(cc3Cl)[C@@H](O)[C@@H]3NC(=O)[C@H](NC(=O)[C@@H]4NC(=O)[C@@H](NC2=O)c2cc(cc(O)c2Cl)Oc2cc1ccc2O)c1ccc(O)c(c1)-c1c(O[C@H]2O[C@H](CO)[C@@H](O)[C@H](O)[C@@H]2O)cc(O)cc1[C@@H](C(=O)NCCCN(C)C)NC3=O` [Dalbavancin], the AUC is reported as 136,29. For `N=C(N)c1ccc2cc(OC(=O)c3ccc(N=C(N)N)cc3)ccc2c1` [Nafamostat], the AUC was 166,53. With `CC(=O)O[C@H]1C[C@H](O[C@H]2[C@@H](O)C[C@H](O[C@H]3[C@@H](O)C[C@H](O[C@H]4CC[C@@]5(C)[C@H](CC[C@@H]6[C@@H]5C[C@@H](O)[C@]5(C)[C@@H](C7=CC(=O)OC7)CC[C@]65O)C4)O[C@@H]3C)O[C@@H]2C)O[C@H](C)[C@H]1O[C@@H]1O[C@H](CO)[C@@H](O)[C@H](O)[C@H]1O` [Lanatoside C] the AUC was 54,25. For Doxycycline hyclate, the AUC was 143,99. In the case of `CC(C)OC(=O)[C@H](C)N[P@](=O)(OC[C@H]1O[C@@H](n2ccc(=O)[nH]c2=O)[C@](C)(F)[C@@H]1O)Oc1ccccc1` [PSI-7977 (Sofosbuvir), Sofosbuvir], the AUC is reported as 131,11. With Pentosan polysulfate the AUC was 123,06. `CO[C@H]1C[C@@H]2CC[C@@H](C)[C@@](O)(O2)C(=O)C(=O)N2CCCC[C@H]2C(=O)O[C@H]([C@H](C)C[C@@H]2CC[C@@H](O)[C@H](OC)C2)CC(=O)[C@H](C)/C=C(\C)[C@@H](O)[C@@H](OC)C(=O)[C@H](C)C[C@H](C)/C=C/C=C/C=C/1C` [Rapamycin] was tested, and the AUC was 46,9. With `C[C@]12Cc3c[nH]nc3C[C@@H]1CC[C@@H]1[C@@H]2CC[C@@]2(C)[C@H]1CC[C@]2(C)O` [Stanozolol] the AUC was 161,7. Abamectin was tested, and the AUC was 151,97. For Clomiprade hydrochloride, the AUC was 74,69. For `C[C@@H]1O[C@@H](O[C@H]2C[C@@H](O)[C@]3(CO)[C@H]4[C@H](O)C[C@]5(C)[C@@H](C6=CC(=O)OC6)CC[C@]5(O)[C@@H]4CC[C@]3(O)C2)[C@H](O)[C@H](O)[C@H]1O` [Ouabain octahydrate], the AUC was 41,93. `CC[C@@]1(O)C(=O)OCc2c1cc1n(c2=O)Cc2cc3ccccc3nc2-1` [Camptothecin] was tested, and the AUC was 57,75. `CC(C)C[C@H]1C(=O)N2CCC[C@H]2[C@]2(O)O[C@](NC(=O)[C@@H]3C=C4c5cccc6[nH]c(Br)c(c56)C[C@H]4N(C)C3)(C(C)C)C(=O)N12.CS(=O)(=O)O` [Bromcriptine mesilate] was tested, and the AUC was 59,71. In the case of `Nc1ncn([C@@H]2O[C@H](CO)[C@@H](O)[C@H]2O)c(=O)n1` [Azacytidine], the AUC is reported as 228,06.

Same assay, conditions: area under the dose-response curve of viability of virus-infected Vero-E6 cells; moi 0.1; 72 h; 7 concentrations; decimal comma
For `Nc1nc(Cl)nc2c1ncn2[C@@H]1O[C@H](CO)[C@@H](O)[C@@H]1F` [Clofarabine], the AUC was 112,42. For `CC(C)OC(=O)OCOP(=O)(CO[C@H](C)Cn1cnc2c(N)ncnc21)OCOC(=O)OC(C)C` [Tenofovir disoproxil fumarate], the AUC was 137,2. `Cc1nc(Nc2ncc(C(=O)Nc3c(C)cccc3Cl)s2)cc(N2CCN(CCO)CC2)n1` [Dasatinib] was tested, and the AUC was 135,45. For `COc1ccc2nc([S@@+]([O-])Cc3ncc(C)c(OC)c3C)[nH]c2c1` [Esomeprazole], the AUC was 177,52. For `CO[C@@H]1[C@@H](OC(N)=O)[C@@H](O)[C@H](Oc2ccc3c(O)c(NC(=O)c4ccc(O)c(CC=C(C)C)c4)c(=O)oc3c2C)OC1(C)C` [Novobiocin], the AUC was 100,73. In the case of `CCC(C)n1ncn(-c2ccc(N3CCN(c4ccc(OCC5COC(Cn6cncn6)(c6ccc(Cl)cc6Cl)O5)cc4)CC3)cc2)c1=O` (stereo not drawn) [Itraconazole], the AUC is reported as 110,18. With `COc1c(C)c2c(c(O)c1C/C=C(\C)CCC(=O)O)C(=O)OC2` [Mycophenolic acid] the AUC was 103,74. For `O=C(O)P(=O)(O)O` [Foscarnet], the AUC was 127,26. In the case of `CC(=O)N[C@H]1[C@H]([C@H](O)[C@H](O)CO)OC(C(=O)O)=C[C@@H]1N=C(N)N` [Zanamivir], the AUC is reported as 113,54. In the case of `CCn1cc(C(=O)O)c(=O)c2cc(F)c(N3CCNCC3)nc21` [Enoxacin], the AUC is reported as 118,23. In the case of `CCN(CC)CCCC(C)Nc1c2ccc(Cl)cc2nc2ccc(OC)cc12` (stereo not drawn) [Quinacrine dihydrochloride], the AUC is reported as 105,63. `CC(=O)Oc1ccccc1C(=O)Nc1ncc([N+](=O)[O-])s1` [Nitazoxanide] was tested, and the AUC was 120,33. `O=C(Nc1ccc([N+](=O)[O-])cc1Cl)c1cc(Cl)ccc1O` [Niclosamide] was tested, and the AUC was 149,52. `CC(C)C[C@H](NC(=O)[C@H](Cc1ccccc1)NC(=O)c1cnccn1)B(O)O` [Bortezomib (PS-341), Bortezomib] was tested, and the AUC was 68,67. `CCN(CCO)CCCC(C)Nc1ccnc2cc(Cl)ccc12` (stereo not drawn) [Hydroxychloroquine] was tested, and the AUC was 147,63. For `CNC(=O)c1cc(Oc2ccc(NC(=O)Nc3ccc(Cl)c(C(F)(F)F)c3)cc2)ccn1` [Sorafenib (BAY 43-9006), Sorafenib], the AUC was 33,12. In the case of `CC/C(=C(\c1ccccc1)c1ccc(OCCN(C)C)cc1)c1ccccc1` [Tamoxifen], the AUC is reported as 54,67. With `CN(C)CCOc1ccc(/C(=C(/CCCl)c2ccccc2)c2ccccc2)cc1` [Toremifene] the AUC was 27,02. In the case of `CC[C@H](C)C(=O)O[C@H]1C[C@@H](C)C=C2C=C[C@H](C)[C@H](CC[C@@H]3C[C@@H](O)CC(=O)O3)[C@H]21` [Lovastatin], the AUC is reported as 204,26. `CCCCCCCCCCCCCCCCOCCCOP(=O)(O)CO[C@H](CO)Cn1ccc(N)nc1=O` [Brincidofovir (CMX001), Brincidofovir] was tested, and the AUC was 126,49. For `CC12CC3CC(C)(C1)CC(N)(C3)C2` [Memantine], the AUC was 115,78. In the case of `COc1ccc([C@@H]2Sc3ccccc3N(CCN(C)C)C(=O)[C@@H]2OC(C)=O)cc1` [Diltiazem], the AUC is reported as 99,61. `CCN(CC)CCCC(C)Nc1ccnc2cc(Cl)ccc12` (stereo not drawn) [Chloroquine phosphate] was tested, and the AUC was 165,9. With `CN(C)CCCN1c2ccccc2Sc2ccc(Cl)cc21` [Chlorpromazine hydrochloride] the AUC was 86,52. In the case of `C[C@H]1[C@H](OC(=O)CCC(=O)O)O[C@@H]2O[C@@]3(C)CC[C@H]4[C@H](C)CC[C@@H]1[C@@]24OO3` [Artesunate], the AUC is reported as 222,25. For `O=C1c2c(O)ccc(O)c2C(=O)c2c(NCCNCCO)ccc(NCCNCCO)c21` [Mitoxantrone], the AUC was 125,09. With `CN(C)c1ccc(O)c2c1C[C@H]1C[C@H]3[C@H](N(C)C)C(O)=C(C(N)=O)C(=O)[C@@]3(O)C(O)=C1C2=O` [Minocycline] the AUC was 119,14. For `CC(C)[C@H](N)C(=O)OCCOCn1cnc2c(=O)[nH]c(N)nc21` [Valaciclovir], the AUC was 134,61. In the case of `Nc1ncnc2c([C@@H]3N[C@H](CO)[C@@H](O)[C@H]3O)c[nH]c12` [BCX4430 (galidesivir), galidesivir], the AUC is reported as 94,08. In the case of `COc1cc2ncnc(Nc3ccc(F)c(Cl)c3)c2cc1OCCCN1CCOCC1` [Gefitinib], the AUC is reported as 188,86. In the case of `CC(C)n1c(/C=C/C(O)CC(O)CC(=O)O)c(-c2ccc(F)cc2)c2ccccc21` (stereo not drawn) [Fluvastatin], the AUC is reported as 154,14. For `Nc1ccn(C[C@@H](CO)OCP(=O)(O)O)c(=O)n1` [Cidofovir], the AUC was 144,69. `CC(C)C(=O)OCC(=O)[C@@]12O[C@H](C3CCCCC3)O[C@@H]1C[C@H]1[C@@H]3CCC4=CC(=O)C=C[C@]4(C)[C@H]3[C@@H](O)C[C@@]12C` [Ciclesonide] was tested, and the AUC was 157,15. In the case of `CC(C)Nc1nc2cc(Cl)c(Cl)cc2n1[C@H]1O[C@@H](CO)[C@H](O)[C@@H]1O` [Maribavir], the AUC is reported as 145,81. In the case of `O=C(/C=C\n1cnc(-c2cc(C(F)(F)F)cc(C(F)(F)F)c2)n1)NNc1ccccn1` [Verdinexor], the AUC is reported as 83,93. `Nc1nc(=O)c2ncn([C@@H]3C[C@H](CO)[C@H]3CO)c2[nH]1` [Lobucavir] was tested, and the AUC was 153,65. For `CCC(C)(C)C(=O)O[C@H]1C[C@@H](C)C=C2C=C[C@H](C)[C@H](CC[C@@H]3C[C@@H](O)CC(=O)O3)[C@H]21` [Simvastatin], the AUC was 163,03. With `CC(=O)OCC(CCn1cnc2cnc(N)nc21)COC(C)=O` [Famciclovir] the AUC was 149,52. With `C#Cc1cccc(Nc2ncnc3cc(OCCOC)c(OCCOC)cc23)c1` [Erlotinib] the AUC was 103,46. With `Cc1c(-c2ccc(-c3ccccc3F)cc2)nc2ccc(F)cc2c1C(=O)O` [Brequinar] the AUC was 260,54.
